# Biological target: VHL (co-expressed with Elongin B and Elongin C) (Homo sapiens (Human), UniProt P40337)
# Experiment: Measurement of intermolecular interactions using surface plasmon resonance (Biacore T200), Kd value for VHL
# Assay type: binding
# Details: SPR, immobilized VHL, 25° C.; read-out: Kd
# Excerpt: As the device, Biacore T200 (manufactured by GE Healthcare) was used. VHL was obtained by co-expressing Elongin B and Elongin C with a Twin-Strep-tag added to the N-terminus. As the sensor chip, Sensor chip CM5 (manufactured by GE Healthcare) was used. First, Strep-Tactin XT (manufactured by GE Healthcare) was immobilized on the sensor chip by amine coupling. Thereafter, VHL was immobilized using the affinity of Strep-Tactin XT and Twin-Strep-tag, and VHL was further immobilized on the sensor chip by amine coupling.
# As the running buffer, a mixed solution of 20 mM HEPES pH 7.5, 150 mM NaCl, 1 mM TCEP, 0.005% Tween 20, and 2% DMSO was used. […] The Contact time and the Dissociation time were determined according to the properties of the compounds. For many compounds, 60 seconds and 120 seconds were respectively used.
# Sequence of VHL (co-expressed with Elongin B and Elongin C) (P40337 whole entry, looked up): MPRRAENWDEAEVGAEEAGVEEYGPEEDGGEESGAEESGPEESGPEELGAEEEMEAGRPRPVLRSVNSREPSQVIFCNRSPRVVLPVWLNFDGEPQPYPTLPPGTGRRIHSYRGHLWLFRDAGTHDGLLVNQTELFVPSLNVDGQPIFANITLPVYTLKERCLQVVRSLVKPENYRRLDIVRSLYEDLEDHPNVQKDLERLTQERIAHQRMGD
# Sequence of VHL (co-expressed with Elongin B and Elongin C) (Q15370 whole entry partner, looked up): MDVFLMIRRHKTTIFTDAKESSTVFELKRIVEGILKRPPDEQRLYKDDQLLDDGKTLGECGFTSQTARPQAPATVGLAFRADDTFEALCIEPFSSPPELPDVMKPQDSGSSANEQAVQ
# Sequence of VHL (co-expressed with Elongin B and Elongin C) (Q15369 whole entry partner, looked up): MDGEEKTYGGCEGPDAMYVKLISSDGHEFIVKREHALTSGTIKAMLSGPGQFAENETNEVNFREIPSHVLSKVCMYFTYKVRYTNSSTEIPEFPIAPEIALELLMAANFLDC
row,Kd,Compound
1,1000 to 10000 nM,"COc1cc(C(C(=O)N2C[C@H](O)C[C@H]2c2nc(C(=O)N3CCC(Oc4ccccc4)CC3)c[nH]2)C(C)C)on1 (stereo partly drawn) [Example 1, 1-[(2S,4R)-4-hydroxy-2-[4-(4-phenoxypiperidine-1-carbonyl)-1H-imidazol-2-yl]pyrrolidin-1-yl]-2-(3-methoxy-1,2-oxazol-5-yl)-3-methylbutan-1-one]"
2,1000 to 10000 nM,"CC(=O)N[C@H](C(=O)N1C[C@H](O)C[C@H]1c1ncc(-c2cccc(-c3scnc3C)c2)[nH]1)C(C)(C)C [Example 6, N-[(2S)-1-[(2S,4R)-4-hydroxy-2-[5-[3-(4-methyl-1,3-thiazol-5-yl)phenyl]-1H-imidazol-2-yl]pyrrolidin-1-yl]-3,3-dimethyl-1-oxobutan-2-yl]acetamide]"
3,1000 to 10000 nM,"CC(=O)N[C@H](C(=O)N1C[C@H](O)C[C@H]1c1nc(C(=O)N(C)Cc2ccccc2Cl)c[nH]1)C(C)(C)C [Example 14, 2-[(2S,4R)-1-[(2S)-2-acetamido-3,3-dimethylbutanoyl]-4-hydroxypyrrolidin-2-yl]-N-[(2-chlorophenyl)methyl]-N-methyl-1H-imidazole-4-carboxamide]"
4,1000 to 10000 nM,"CC(=O)N[C@H](C(=O)N1C[C@H](O)C[C@H]1c1nc(C(=O)N(C)Cc2cccc(Cl)c2)c[nH]1)C(C)(C)C [Example 15, 2-[(2S,4R)-1-[(2S)-2-acetamido-3,3-dimethylbutanoyl]-4-hydroxypyrrolidin-2-yl]-N-[(3-chlorophenyl)methyl]-N-methyl-1H-imidazole-4-carboxamide]"
5,1000 to 10000 nM,"CC(=O)N[C@H](C(=O)N1C[C@H](O)C[C@H]1c1nc(C(=O)N(C)Cc2ccc(Cl)cc2)c[nH]1)C(C)(C)C [Example 16, 2-[(2S,4R)-1-[(2S)-2-acetamido-3,3-dimethylbutanoyl]-4-hydroxypyrrolidin-2-yl)-N-[(4-chlorophenyl)methyl]-N-methyl-1H-imidazole-4-carboxamide]"
6,1000 to 10000 nM,"CC(=O)N[C@H](C(=O)N1C[C@H](O)C[C@H]1c1nc(C(=O)N(C)Cc2ccccc2F)c[nH]1)C(C)(C)C [Example 17, 2-[(2S,4R)-1-[(2S)-2-acetamido-3,3-dimethylbutanoyl]-4-hydroxypyrrolidin-2-yl]-N-[(2-fluorophenyl)methyl]-N-methyl-1H-imidazole-4-carboxamide]"
7,1000 to 10000 nM,"CC(=O)N[C@H](C(=O)N1C[C@H](O)C[C@H]1c1nc(C(=O)N(C)Cc2cccc(F)c2)c[nH]1)C(C)(C)C [Example 18, 2-[(2S,4R)-1-[(2S)-2-acetamido-3,3-dimethylbutanoyl]-4-hydroxypyrrolidin-2-yl]-N-[(3-fluorophenyl)methyl]-N-methyl-1H-imidazole-4-carboxamide]"
8,1000 to 10000 nM,"CC(=O)N[C@H](C(=O)N1C[C@H](O)C[C@H]1c1nc(C(=O)N(C)Cc2ccc(F)cc2)c[nH]1)C(C)(C)C [Example 19, 2-[(2S,4R)-1-[(2S)-2-acetamido-3,3-dimethylbutanoyl]-4-hydroxypyrrolidin-2-yl]-N-[(4-fluorophenyl)methyl]-N-methyl-1H-imidazole-4-carboxamide]"
9,1000 to 10000 nM,"CC(=O)N[C@H](C(=O)N1C[C@H](O)C[C@H]1c1nc(C(=O)N(C)Cc2ccccc2C(F)(F)F)c[nH]1)C(C)(C)C [Example 20, 2-[(2S,4R)-1-[(2S)-2-acetamido-3,3-dimethylbutanoyl]-4-hydroxypyrrolidin-2-yl]-N-methyl-N-[[2-(trifluoromethyl)phenyl]methyl]-1H-imidazole-4-carboxamide]"
10,1000 to 10000 nM,"CC(=O)N[C@H](C(=O)N1C[C@H](O)C[C@H]1c1nc(C(=O)N(C)Cc2cccc(C(F)(F)F)c2)c[nH]1)C(C)(C)C [Example 21, 2-[(2S,4R)-1-[(2S)-2-acetamido-3,3-dimethylbutanoyl]-4-hydroxypyrrolidin-2-yl]-N-methyl-N-[[3-(trifluoromethyl)phenyl]methyl]-1H-imidazole-4-carboxamide]"
11,1000 to 10000 nM,"CC(=O)N[C@H](C(=O)N1C[C@H](O)C[C@H]1c1nc(C(=O)N(C)Cc2ccc(C(F)(F)F)cc2)c[nH]1)C(C)(C)C [Example 22, 2-[(2S,4R)-1-[(2S)-2-acetamido-3,3-dimethylbutanoyl]-4-hydroxypyrrolidin-2-yl]-N-methyl-N-[[4-(trifluoromethyl)phenyl]methyl]-1H-imidazole-4-carboxamide]"
12,1000 to 10000 nM,"COc1cccc(CN(C)C(=O)c2c[nH]c([C@@H]3C[C@@H](O)CN3C(=O)[C@@H](NC(C)=O)C(C)(C)C)n2)c1 [Example 24, 2-[(2S,4R)-1-[(2S)-2-acetamido-3,3-dimethylbutanoyl]-4-hydroxypyrrolidin-2-yl]-N-[(3-methoxyphenyl)methyl]-N-methyl-1H-imidazole-4-carboxamide]"
13,1000 to 10000 nM,"COc1ccc(CN(C)C(=O)c2c[nH]c([C@@H]3C[C@@H](O)CN3C(=O)[C@@H](NC(C)=O)C(C)(C)C)n2)cc1 [Example 25, 2-[(2S,4R)-1-[(2S)-2-acetamido-3,3-dimethylbutanoyl]-4-hydroxypyrrolidin-2-yl]-N-[(4-methoxyphenyl)methyl]-N-methyl-1H-imidazole-4-carboxamide]"
14,1000 to 10000 nM,"CC(=O)N[C@H](C(=O)N1C[C@H](O)C[C@H]1c1nc(C(=O)N(C)Cc2cccc(-c3scnc3C)c2)c[nH]1)C(C)(C)C [Example 29, 2-[(2S,4R)-1-[(2S)-2-acetamido-3,3-dimethylbutanoyl]-4-hydroxypyrrolidin-2-yl]-N-methyl-N-[[3-(4-methyl-1,3-thiazol-5-yl)phenyl]methyl]-1H-imidazole-4-carboxamide]"
15,1000 to 10000 nM,"CC(=O)N[C@H](C(=O)N1C[C@H](O)C[C@H]1c1nc(C(=O)N(C)Cc2ccc3ccccc3c2)c[nH]1)C(C)(C)C [Example 30, 2-[(2S,4R)-1-[(2S)-2-acetamido-3,3-dimethylbutanoyl]-4-hydroxypyrrolidin-2-yl]-N-methyl-N-(naphthalen-2-ylmethyl)-1H-imidazole-4-carboxamide]"
16,1000 to 10000 nM,"CC(=O)N[C@H](C(=O)N1C[C@H](O)C[C@H]1c1nc(C(=O)N(C)Cc2cccc3ccccc23)c[nH]1)C(C)(C)C [Example 31, 2-[(2S,4R)-1-[(2S)-2-acetamido-3,3-dimethylbutanoyl]-4-hydroxypyrrolidin-2-yl]-N-methyl-N-(naphthalen-1-ylmethyl)-1H-imidazole-4-carboxamide]"
17,1000 to 10000 nM,"CC(=O)N[C@H](C(=O)N1C[C@H](O)C[C@H]1c1nc(C(=O)N(C)Cc2ccc(-c3scnc3C)cc2)c[nH]1)C(C)(C)C [Example 35, 2-[(2S,4R)-1-[(2S)-2-acetamido-3,3-dimethylbutanoyl]-4-hydroxypyrrolidin-2-yl]-N-methyl-N-[[4-(4-methyl-1,3-thiazol-5-yl)phenyl]methyl]-1H-imidazole-4-carboxamide]"
18,1000 to 10000 nM,"COc1cc(C(C(=O)N2C[C@H](O)C[C@H]2c2nc(C(=O)N(Cc3ccc(-c4scnc4C)cc3)CC(F)(F)F)c[nH]2)C(C)C)on1 (stereo partly drawn) [Example 40, 2-[(2S,4R)-4-hydroxy-1-[2-(3-methoxy-1,2-oxazol-5-yl)-3-methylbutanoyl]pyrrolidin-2-yl]-N-[[4-(4-methyl-1,3-thiazol-5-yl)phenyl]methyl]-N-(22,2-trifluoroethyl)-1H-imidazole-4-carboxamide]"
19,< 1000 nM,"COc1cc(C(C(=O)N2C[C@H](O)C[C@H]2c2ncc(-c3cccc(-c4scnc4C)c3)[nH]2)C(C)C)on1 (stereo partly drawn) [Example 44, 1-[(2S,4R)-4-hydroxy-2-[5-[3-(4-methyl-1,3-thiazol-5-yl)phenyl]-1H-imidazol-2-yl]pyrrolidin-1-yl]-2-(3-methoxy-1,2-oxazol-5-yl)-3-methylbutan-1-one]"
